Test system: B. anthracis Sterne strain ΔftsX
Type: cell-based, Bacillus anthracis

| Molecule | susceptibility of ΔftsX | susceptibility of ΔftsX exponential and stationary phase organisms | susceptibility of ΔftsX to CXCL10-mediated killing |
| --- | --- | --- | --- |
| human CXCL9 | resistant |  |  |
| human CXCL10 |  | both resistant | resistance |
| human CXCL11 (protein, listed as Homo sapiens) QGFPMFKRGRCLCIGPGVKAVKVADIEKASIMYPSNNCDKIEVIITLKENKGQRCLNPKSKQARLIIKKVERKNF | resistant |  |  |

From patent US9937234B2, “Compositions and methods for using and identifying antimicrobial agents” (priority 2013, dated 2018)
